Assay results from patent US10189796B2, “[4-(1,3,3-trimethyl-2-oxo-3,4-dihydro-1H-quinoxalin-7-yl)phenoxy]ethyloxy compound or salt thereof” (SANTEN PHARMACEUTICAL CO., LTD., priority 2015, dated 2019).

How the values were obtained:
[1] = test system: ovalbumin actively sensitized allergic conjunctivitis model of rabbits; test: Allergic conjunctivitis model evaluation test; assay type: in vivo, rabbit; conditions: eye drop 50 μL four times a day for 4 days plus once, 0.5 hour after challenge
Procedure: In order to evaluate an anti-allergic action of the present compounds on allergic conjunctivitis, an inhibitory effect on hyperemia in an ovalbumin actively sensitized allergic conjunctivitis model of rabbits was investigated. Incidentally, this effect was evaluated by calculating an inhibitory ratio from the score of the base agent administered group (control group) and the score of the test compound administered group.
A base agent containing a general additive(s) was added to the test compound to prepare test compound suspensions with 1% (WN) and 3% (W/V).
By using male JW rabbits, ovalbumin (200 μg/mL/physiological saline solution) adsorbed on aluminum hydroxide gel was injected 200 μL per eye into bulbar conjunctiva of both eyes of rabbits, respectively, to perform active sensitization.
After 14 days from sensitization or later, the test compound suspension was eye-dropped four times a day for 4 days, and then, at the next day, it was eye-dropped (instillation dose: 50 μL/time) once to both eyes. Incidentally, the base agent was similarly eye-dropped to the base agent administered group (control group).
One hour after the final eye dropping of the test compound suspension, a physiological saline solution containing 0.02% (W/V) of ovalbumin was administered from rabbit ear vein at a dose of 1.5 mL per 1 kg of rabbit to induce allergic conjunctivitis.
After 0.5 hour of the challenge, the degree of hyperemia symptoms of both ocular conjunctiva of rabbits was evaluated according to the following criteria, and the average value of the total of these scores was calculated. […]

[2] = test system: paracentesis induced intraocular inflammation model of rabbits; test: Anterior eye inflammation model evaluation test; assay type: in vivo, rabbit; conditions: 3% (W/V) suspension, eye dropped 50 μL four times; 120 minutes after primary puncture
Procedure: In order to evaluate an anti-inflammatory action of the present compound on anterior eye inflammation, an inhibitory effect on a number of infiltrated cells into aqueous humor in a paracentesis induced intraocular inflammation model of rabbits was investigated. Incidentally, this effect was evaluated by calculating an inhibitory ratio from a number of infiltrated cells into aqueous humor in the base agent administered group (control group) and a number of infiltrated cells into aqueous humor in the test compound administered group.
A base agent containing a general additive(s) was added to the test compound to prepare a test compound suspension with 3% (W/V).
• 1) Male JW rabbits underwent local anesthesia with 0.4% oxybuprocaine hydrochloride (trade name: Benoxil ophthalmic solution 0.4%), and about 0.1 mL of anterior aqueous humor was collected by using a syringe for tuberculin so as not to touch the iris to carry out primary puncture, whereby an inflammatory response was induced. • 2) Thirty minutes before the primary puncture, heparin was intravenously administered so as to be about 50 unit/kg. • 3) The test compound suspension was eye dropped (instillation dose: 50 μL/time) to both eyes in total four times, 210 minutes before, 60 minutes before, 15 minutes after, and 90 minutes after the primary puncture. […]

[3] = test system: exorbital lacrimal gland-removed rat dry eye model; test: Dry eye syndrome (dry eye) model evaluation test; assay type: in vivo; conditions: eye drop 5 μL four times a day
[4] = test system: carrageenin-caused conjunctivitis model of rats; test: Conjunctivitis model evaluation test; assay type: in vivo, rat; conditions: 1% suspension, eye dropped 5 μL five times from 1 hour before to 3 hours after induction
Procedure: In order to evaluate an anti-inflammatory action of the present compound to conjunctivitis, an inhibitory effect on edema formation in a carrageenin-caused conjunctivitis model of rats was investigated. Incidentally, this effect was evaluated by calculating an edema formation inhibitory ratio from a weight of the edema in a base agent administered group (control group) and a weight of the edema in the test compound administered group.
A base agent containing a general additive(s) was added to the test compound to prepare test compound suspensions with 0.001% (W/V), 0.003% (W/V), 0.01% (W/V) and 1% (W/V). […]
Four hours after induction, rats under general anesthesia were sacrificed by decapitation method, conjunctival edema areas of both eyes were removed, and the weight of each was measured. The edema formation inhibitory ratio was calculated from the average value of the weight of the edema.
Based on the average value of the weight of the edema of the base agent administered group (control group), the edema formation inhibitory ratio of the test compound suspension eye drop group was calculated by the following calculation formula. […]

COc1cc(OC[C@@H](O)CC#N)ccc1-c1ccc2c(c1COc1cc(F)ccc1C)N(C)C(=O)C(C)(C)N2 [Compound 5-2, (S)-7-[4-(3-cyano-2-hydroxypropyl)oxy-2-methoxyphenyl]-8-(5-fluoro-2-methyl-phenoxymethyl)-1,3,3-trimethyl-3,4-dihydro-1H-quinoxalin-2-one]
Eye congestion inhibitory ratio (%) ([1]; 3% suspension): 35%

COc1cc(OC[C@H](C)OC(=O)CN(C)C)ccc1-c1ccc2c(c1COc1cc(F)ccc1C)N(C)C(=O)C(C)(C)N2 [Compound 11-1, (S)-7-[4-[2-(N,N-dimethylaminoacetoxy)propyl]oxy-2-methoxyphenyl]-8-(5-fluoro-2-methylphenoxymethyl)-1,3,3-trimethyl-3,4-dihydro-1H-quinoxalin-2-one]
inhibitory ratio (%) of the number of infiltrated cells into aqueous humor [2]: 37% | Eye congestion inhibitory ratio (%) ([1]; 1% suspension): 44% | Corneal disorder improvement ratio (%) After 7 days eye dropping ([3]; 0.03%): 35% | Corneal disorder improvement ratio (%) After 7 days eye dropping ([3]; 0.1%): 44%

COc1ccc(O)cc1-c1ccc2c(c1COc1cc(F)ccc1C)N(C)C(=O)C(C)(C)N2 [Control compound C, 8-(5-fluoro-2-methylphenoxymethyl)-7-(5-hydroxy-2-methoxyphenyl)-1,3,3-trimethyl-3,4-dihydro-1H-quinoxalin-2-one]
Edema formation inhibitory ratio (%) [4]: 14%
